# How the values were obtained:
# [1] = test system: Hypersensitive response assisting protein (gene 7, Solyc07g006570.2); experiment: qRT-PCR expression of gene 7 in tomato leaves; format: in vivo, Tomato ecotype corbarino; design: key to RQ1 / RQ2 / RQ3 / RQ mean: relative expression normalized to a-tubulin housekeeping gene
# Protocol: (§1) Tomato ecotype “corbarino” reported to be susceptible to TSWV infection was used in the experiment. Plants were grown in pots in a climatic chamber with a photoperiod of 16/8 hour at 25° C.
# (§2) The viral strain (TSWV PV PV-0393) was utilized in the experiment. The virus was mechanically inoculated and propagated on tomato “corbarino”. The inoculum was prepared in an ice-cooled mortar grounding 1 gr of infected tomato tissue in 10 ml of Na-phosphate buffer 0.01M. The fresh prepared inoculum was stored in ice before use. Tomato plants at BBCH16 were dusted with Carborundum 600 mesh and selected leaves were rubbed with some droplets of inoculum. After 5 min. plants were sprayed with sterile water to remove the excess of inoculum and preserve the cell turgor.
# (§3) Four treatments were compared: i) Mock inoculated; ii) TSWV; iii) 0.25% Laminarin; iv) 0.25% Laminarin+TSWV. In the last treatment the virus was inoculated 24 hrs after the laminarin application.
# (§4) Total RNA was extracted from systemic infected tomato leaves by using the Quick-RNA Plant Kit (Zymo Research) following the manufacturer instructions. The extractions were carried out using three plants after 12 h, 24 h, 48 h, 72 h, 7 days after inoculation. Leaves were instantly frozen in liquid nitrogen after cutting to avoid any deterioration of the sample as well as any defense reaction. The RNA concentration was quantified by measuring the absorbance at 260 nm using a Nanodrop 2000 (Thermofisher). The purity of all of the RNA samples was assessed at an absorbance ratio of OD260/280 and OD260/230, while its structural integrity was checked by agarose gel electrophoresis. Only high-quality RNA with OD 260/280 and OD 260/230>2 was used for subsequent steps. Single-stranded cDNA was synthesized from 1 μg of total RNA using an iScript™ Select cDNA Synthesis Kit and random hexamers as primers (Bio-Rad, Milan, Italy), according to the manufacturer's instructions. Three biological replicates were created from the 3 leaves collected to test 15 genes. Alpha tubulin was used as reference gene.
# (§5) qPCR reactions were performed with BioRad (Applied Biosystems, Foster City, CA, USA) using SYBR R Green. Each reaction was performed in 20 μl containing 10 μl of 2× Power SYBR Green PCR Master Mix (Life Technologies), 0.2-0.3 μM primers and cDNA samples diluted 1:20. Each qPCR reaction was performed in triplicate. Reactions were run using the cycling parameter described previously (Reid et al., 2006) and the qPCR data were analyzed by the Ct method (Pfaffl, 2001). In order to analyze the qPCR data, a-tubulin gene was used as housekeeping to determine the relative expression level of the other genes analyzed in this work. For the determination of qPCR efficiency of each primer pairs, a standard curve was performed using the following cDNA dilutions: 1:4, 1:16, 1:64; 1:256 and 1:1024. Every measurement was made in triplicate. The corresponding qPCR efficiencies (E) were calculated for every primer pair with the software 7300 System SDS software (Applied Biosystems, Foster City, CA, USA) according to the equation E=(10−1/slope−1)×100 (Rutledge and Stewart, 2008).
# (§6) The significance of the differences between the gene expressions levels were compared by one-way ANOVA (p=0.01) and the means were separated by Tukey post-hoc test using SPSS ver.26 ([…]).
# [2] = test system: Nbs-Irr resistance protein (gene 3, Solyc05g009760.1); experiment: qRT-PCR expression of gene 3 in tomato leaves; format: in vivo, Tomato ecotype corbarino; design: key: relative expression normalized to a-tubulin housekeeping gene
# Protocol: as §1, §2, §3, §4, §5, §6
substance,measurement,setting,value
laminarin,RQ1,"[1]; 12 hr, Laminarin + virus",12.106
same,RQ2,"[1]; 12 hr, Laminarin + virus",0.8295
same,RQ3,"[1]; 12 hr, Laminarin + virus",10.421
same,RQ mean,"[1]; 12 hr, Laminarin + virus",10.274
same,RQ1,"[1]; 12 hr, Laminarin alone",0.9749
same,RQ2,"[1]; 12 hr, Laminarin alone",0.8446
same,RQ3,"[1]; 12 hr, Laminarin alone",0.8747
same,RQ mean,"[1]; 12 hr, Laminarin alone",0.8981
same,RQ1,"[1]; 24 hr, Laminarin + virus",13.380
same,RQ2,"[1]; 24 hr, Laminarin + virus",12.897
same,RQ3,"[1]; 24 hr, Laminarin + virus",10.449
same,RQ mean,"[1]; 24 hr, Laminarin + virus",12.242
same,RQ1,"[1]; 24 hr, Laminarin alone",11.623
same,RQ2,"[1]; 24 hr, Laminarin alone",12.446
same,RQ3,"[1]; 24 hr, Laminarin alone",12.085
same,RQ mean,"[1]; 24 hr, Laminarin alone",12.051
same,gene 7 expression compared to TSWV treatment,"[1]; 48 hr, 0.25% laminarin + TSWV inoculated 24 hrs later",inverted
same,gene 7 expression compared to TSWV treatment,"[1]; 48 hr, 0.25% laminarin alone",inverted
same,RQ1,"[1]; 48 hr, Laminarin + virus",0.7159
same,RQ2,"[1]; 48 hr, Laminarin + virus",0.5334
same,RQ3,"[1]; 48 hr, Laminarin + virus",0.8167
same,RQ mean,"[1]; 48 hr, Laminarin + virus",0.6886
same,RQ1,"[1]; 48 hr, Laminarin alone",0.7103
same,RQ2,"[1]; 48 hr, Laminarin alone",0.7130
same,RQ3,"[1]; 48 hr, Laminarin alone",0.6351
same,RQ mean,"[1]; 48 hr, Laminarin alone",0.6861
same,RQ1,"[1]; 72 hr, Laminarin + virus",19.008
same,RQ2,"[1]; 72 hr, Laminarin + virus",20.416
same,RQ3,"[1]; 72 hr, Laminarin + virus",14.535
same,RQ mean,"[1]; 72 hr, Laminarin + virus",17.986
same,RQ1,"[1]; 72 hr, Laminarin alone",10.549
same,RQ2,"[1]; 72 hr, Laminarin alone",0.4677
same,RQ3,"[1]; 72 hr, Laminarin alone",11.927
same,RQ mean,"[1]; 72 hr, Laminarin alone",0.9051
same,gene 7 overexpression compared to TSWV treatment,"[1]; 72 hr, other treatments (laminarin alone, laminarin+TSWV) versus TSWV",overexpression induced by the TSWV is higher compared to the other treatments
same,RQ1,"[2]; 12 hr, Laminarin + virus",11.935
same,RQ2,"[2]; 12 hr, Laminarin + virus",12.286
same,RQ3,"[2]; 12 hr, Laminarin + virus",0.9487
same,RQ mean,"[2]; 12 hr, Laminarin + virus",11.236
same,RQ1,"[2]; 12 hr, Laminarin alone",10.545
same,RQ2,"[2]; 12 hr, Laminarin alone",10.498
same,RQ3,"[2]; 12 hr, Laminarin alone",0.8329
same,RQ mean,"[2]; 12 hr, Laminarin alone",0.9791
same,RQ1,"[2]; 24 hr, Laminarin + virus",11.167
same,RQ2,"[2]; 24 hr, Laminarin + virus",10.509
same,RQ3,"[2]; 24 hr, Laminarin + virus",13.936
same,RQ mean,"[2]; 24 hr, Laminarin + virus",11.871
same,RQ1,"[2]; 24 hr, Laminarin alone",12.229
same,RQ2,"[2]; 24 hr, Laminarin alone",13.976
same,RQ3,"[2]; 24 hr, Laminarin alone",11.514
same,RQ mean,"[2]; 24 hr, Laminarin alone",12.573
same,RQ1,"[2]; 48 hr, Laminarin + virus",12.976
same,RQ2,"[2]; 48 hr, Laminarin + virus",26.960
same,RQ3,"[2]; 48 hr, Laminarin + virus",15.208
same,RQ mean,"[2]; 48 hr, Laminarin + virus",18.381
same,RQ1,"[2]; 48 hr, Laminarin alone",27.419
same,RQ2,"[2]; 48 hr, Laminarin alone",26.255
same,RQ3,"[2]; 48 hr, Laminarin alone",14.098
same,RQ mean,"[2]; 48 hr, Laminarin alone",22.591
same,RQ1,"[2]; 72 hr, Laminarin + virus",47.747
same,RQ2,"[2]; 72 hr, Laminarin + virus",48.776
same,RQ3,"[2]; 72 hr, Laminarin + virus",16.860
same,RQ mean,"[2]; 72 hr, Laminarin + virus",37.794
same,RQ1,"[2]; 72 hr, Laminarin alone",19.725
same,RQ2,"[2]; 72 hr, Laminarin alone",58.615
same,RQ3,"[2]; 72 hr, Laminarin alone",21.699
same,RQ mean,"[2]; 72 hr, Laminarin alone",33.346
